Legend:
Papio hamadryas [1] = species: Papio hamadryas; experiment: Peak concentration injected dose/cc was observed at 10 min post injection in female baboons; type: functional
Papio hamadryas [2] = species: Papio hamadryas; experiment: Percent radioactivity remained at 120 min post injection was reported in female baboons; type: functional, organism-based; conditions: tested as the 18F-labelled form

| Compound | Peak concentration (Papio hamadryas [1]) [%] | Radioactivity remained (Papio hamadryas [2]) [%] |
| --- | --- | --- |
| NCC(O)c1cc(O)c(O)cc1[18F] (racemic) | 0.042 |  |
| NCC(O)c1cc(O)c(O)cc1F (racemic) |  | 0.032 |

Source: ChEMBL document CHEMBL1125877, “Synthesis of high specific activity (+)- and (-)-6-[18F]fluoronorepinephrine via the nucleophilic aromatic substitution reaction” (1991)
